According to publication PMC11582070, “Template-assisted covalent modification underlies activity of covalent molecular glues” (Nature Chemical Biology, 2023):

Assays:
DCAF16 [1] = biological target: T1, DCAF16 (Homo sapiens, UniProt O60885+Q9NXF7); assay: intact protein MS ([…] adduct alone, […] with BRD4BD2; none with C58S); TR-FRET; type: binding
T1 construct: full length, in complex with DDB1ΔB; with BRD4 BD2 (template), DDB1ΔB

DCAF16 [2] = biological target: T1, DCAF16; assay: intact protein MS; TR-FRET; type: binding

Compound: Cc1sc2c(c1C)C(c1ccc(/C=C/C=O)cc1)=N[C@@H](CC(=O)OC(C)(C)C)c1nnc(C)n1-2 [compound 2, TMX1]
- intact protein MS (8% adduct alone, 50% with BRD4BD2; none with C58S); TR-FRET (DCAF16 [1]): By intact mass spectrometry, the DCAF16 C58S mutant completely eliminated DCAF16–TMX1 adduct formation

Compound: C=CC(=O)Nc1ccc(C2=N[C@@H](CC(=O)OC(C)(C)C)c3nnc(C)n3-c3sc(C)c(C)c32)cc1 [compound 3, MMH1]
- intact protein MS; TR-FRET (DCAF16 [2]): DCAF16 intact mass spectrometry experiments on MMH1 and MMH2 and found similar template-assisted covalent modifications
